Where two headings read alike, the source gives them in different places.
Tested on: influenza virus A/PR/8/34 (H1N1)
Test: organism not typed
Format: cell-based
Settings: read-out: IC50 (anti-viral activity, 50% inhibitory concentration)
[1] = MDCK cells infected with 100TCID50 of influenza A/PR/8/34 (H1N1), treatment for 48 h, Reed-Muench method

SMILES	IC50 [1]	IC50 (MDCK, 48 h)
O=C1Nc2ccccc2O[C@@H]1O [Compound of Formula 5, 2-hydroxy-1,4-benzoxazin-3-one]	> 200 µM	–
O=Cc1c[nH]c2ccccc12 [Compound of Formula 7, 1H-indole-3-carbaldehyde]	42 µM	–
O=C1COc2ccccc2N1 [Compound of Formula 9, 2H-1,4-benzoxazin-3-one]	> 200 µM	–
C=C(CO)[C@@H]1CC[C@]2(C)CC[C@]3(C)[C@H](CC[C@@H]4[C@@]5(C)CC[C@H](O)C(C)(C)C5CC[C@]43C)[C@@H]12 (stereo partly drawn) [Compound of Formula 19, lup-20(29)-en-3β, 30-diol]	–	33.6 µM
NC(=O)c1ncn([C@@H]2O[C@H](CO)[C@@H](O)[C@H]2O)n1 [ribavirin, reference compound]	30.4 µM	–

Reference: US10537601B2, “Method of isolating anti-viral ingredients from Baphicacanthus cusia, compositions comprising them and their medical use” (priority 2016, dated 2020)
